In the oligonucleotide strings, read from the 5' end, every base follows the letter of its sugar. An asterisk marks phosphorothioate; unmarked linkages are phosphodiester. Other units and linkages are bracketed, terminal groups are in braces. A string of capitals states the bases alone. [invAb] = inverted abasic unit; d = 2'-deoxy (DNA); m = 2'-O-methyl; r = 2'-OH (RNA)
Assays:
[1] = test system: HCC rat DEN model; test: DEN rat HCC model, tumour volume; format: in vivo; conditions: DEN rats; treated 3x/week for 2 weeks (MTL-CEBPA i.v.; sorafenib P.O. 10 mg/kg); sacrifice day 15; PBS 644.7
Procedure: (§1) Male Wistar rats (150-180 g) at 7 weeks of age were obtained from the Animal Center of National Taiwan University. The rats were housed in standard conditions, and all the experiments were conducted in accordance with the “Guide for the Care and Use of Laboratory Animals” prepared by the Institutional Animal Care and Use Committee of National Taiwan University. The rats were given DEN solution daily (Sigma, St Louis, Mo.) as the sole source of drinking water for 6 weeks, followed by 3 weeks of regular water. The DEN solution feeding started with 100 ppm in the first week. The average bodyweight (BW) of the animals was measured once a week per group of five rats, and the concentration of DEN in their drinking water was adjusted in proportion to the BW each week relative to that of the first week. […]
On 15th day after treatment, the animals were sacrificed and tumour size and tumour/liver weight were measured. The body, liver, lung, and spleen were weighed, and the aspects of all organs were recorded. After the animals were sacrificed, all liver lobes were promptly removed and weighed, and the diameters of all of the macroscopically visible nodules on the liver surface and in the 5-mm sliced sections were measured. Tumour burden was determined in terms of two criteria: the ratio of liver weight/BW, and the total volume of all the tumour nodules with diameter >3 mm. […]

[2] = test system: alpha-fetoprotein (AFP); test: DEN rat HCC model, serum alpha-fetoprotein; format: in vivo; conditions: DEN rats, 2 weeks dosing, PBS 27
Procedure: as §1
The serum levels of ALT, AST and total bilirubin were measured with VITROS 5.1 FS Chemistry Systems (Ortho-Clinical Diagnostics, Inc.). The serum level of rat alpha-fetoprotein was evaluated with anti-Rat AFP ELISA Kit (USCN life company/China), following the instructions of the manufacturer.
Serum levels of alpha-fetoprotein (AFP) were measured before treatment and compared to measurement after treatment and represented as ‘AFP change’ (mg/dl). Serum AFP change was measured in each group. […]

[3] = test system: Nexavar resistant BNL tumour; test: Sorafenib-resistant BNL subcutaneous tumour model; format: in vivo, mouse; conditions: after 3 weeks; MTL-CEBPA 4.2 mg/kg IV d1, d3, d5; anti-PD1 250 ug IP d1, d3, d5; Sorafenib 30 mg/kg PO daily
Procedure: Cell Culture: The mouse hepatocellular carcinoma cell line BNL was maintained in Dulbecco's modified Eagle's medium (DMEM, Gibco by Invitrogen) with […] G418 (Merck, Germany), 1% antibiotic antimycotic (Gibco by Invitrogen) and 10% fetal bovine serum (Gibco by Invitrogen) and cultured at 37° C. in a humidified atmosphere.
Tumour Inoculation and Experimental design: Each BALB/c mice were injected subcutaneously (s.c.) on the flank with 3×10^5 BNL-Luc cells in 0.05 ml of PBS. After inoculation for 3 weeks, Nexavar® (Sorafenib) was orally administered every day for two weeks (30 mg/kg/day).
The selected animals were randomized into the 7 treatment groups (Table 18).
60 mice were injected with 3×10^5 of BNL-Luc cells in […] mixture of PBS. After 3 weeks, the mice were dosed with 30 mg/kg of Sorafenib p.o. every day for 2 weeks. […] The 7 groups included PBS as Control group [PBS]; MTL-CEBPA [C], ([…], I.V., d1, d3, d5); anti-PD1 antibody [P] (250 ug, I.P., d1, d3, d5); Nexavar® (Sorafenib) [N] (30 mg/kg, P.O. daily); MTL-CEBPA+anti-PD1 [C+P]; MTL-CEBPA+Nexavar® (Sorafenib) [C+N] and MTL-CEBPA+anti-PD1+Nexavar® (Sorafenib) [C+P+N].

[4] = test system: HCC; conditions: single agent, published Phase III; cited from earlier work
[5] = test system: advanced HCC; conditions: cited from earlier work
[6] = test system: CEBPA-mRNA; test: qRT-PCR of CEBPA mRNA, CEBPA-51 with FGFR4 antibody; format: cell-based; conditions: Hep3B; oligo 10 nM, anti-human FGFR4 antibody 30 ug/ml where applicable; 72 hours post-seeding; Mock, no antibody = 1.00
Procedure: RNA was isolated from cultured cells using the RNeasy Mini Kit (QIAGEN). RNA was quantitated using a Qiaxpert (Qiagen), and reverse transcribed using the Quantitect Reverse Transcription Kit (QIAGEN). Relative expression levels were determined by qPCR using Quantifast SYBR Green Master Mix (QIAGEN) on a Quantstudio 5 (Qiagen). The following Quantitect Primer Assays (QIAGEN) were used: CEBPA_1_SG, FGFR4_1_SG and GAPDH_1_SG. Relative expression was determined the DDCt method normalized to GAPDH expression.
(§2) In another study, Hep3B cells were seeded at 1.0×10^5 cells/well in a 24 well plate in the presence of 30 ug/ml anti-human FGFR4 therapeutic antibody (XPA.48.056; Creative Biolabs) as applicable. Cells were transfected with either 10 nM CEBPA-51 saRNA, 10 nM Control oligo (NC) or transfection agent alone (Mock) at seeding and this was repeated 24 hours post- seeding and culture medium changed at 48 hours. FGFR antibody treatment was maintained throughout the experiment. Cells were harvested for RNA collection 72 hours post-seeding qRT-PCR analysis.

[7] = test system: Hep3B cells; test: WST1 growth assay, CEBPA-51 with FGFR4 antibody; format: cell-based; conditions: oligo 10 nM, FGFR4 antibody where applicable, Mock, no antibody = 1.00
Procedure: (§3) HepB3 cells were seeded at 1×10^4 cells/well in a 96 well plate, reverse transfected with oligo at seeding and forward transfected 24 hours later. WST cell viability assay was performed as according to the manufactures' instructions (with 24 hr WST incubation). The WST alone signal has been subtracted from the cell-WST signal.
as §2
Treatment of Hep3B cells with FGFR4 antibody reduced cell viability. Combination treatment of both FGFR4 antibody and CEPBA-51 further reduced cell viability as monitored by WST1 growth assay (Table 9A, 96 hours; Table 9B, 120 hours).

[8] = test system: Hep3B cells; test: WST-1 growth assay, siFGFR4 / CEBPA-51; format: cell-based; conditions: 20 nM, Mock = 1.00
Procedure: HepB3 cells were grown in DMEM supplemented with 10% fetal bovine serum (FBS), 2 mM L-glutamine, and penicillin/streptomycin in a 5% CO2 incubator. Transfections were performed using 2 μL of Lipofectamine 2000 (Life Technologies) per well in 24 well plate.
as §3

[9] = test system: HCC; conditions: CHECKMATE-040 subgroup, cited from earlier work

CNC(=O)c1cc(Oc2ccc(NC(=O)Nc3ccc(Cl)c(C(F)(F)F)c3)cc2)ccn1 [Sorafenib]
Tumor volume, Mean [1]: 299.5 mm^3 | AFP change (pre-treatment vs post-treatment), Mean [2]: -36.83 mg/dL | reduction in tumour volume [3]: no effect | reduction in tumour weight [3]: no effect | complete responses, share of patients [4]: 0% | partial responses, share of patients [4]: 2% | decrease in the risk of death ([5]; patients with advanced HCC): 31% | median survival ([5]; patients with advanced disease, placebo 7.9 months): 10.7 months

COc1cc2nccc(Oc3ccc(NC(=O)NC4CC4)c(Cl)c3)c2cc1C(N)=O [lenvatinib]
partial responses, share of patients [4]: 24%

CEBPA-51: saRNA duplex that upregulates C/EBPa; antisense SEQ ID No. 1, sense SEQ ID No. 2 (sense GCGGUCAUUGUCACUGGUCUU; antisense GACCAGUGACAAUGACCGCUU; sense: sugars from the 5' end mmrmrrrrrmrrrmrrrrrmm, [invAb] at 5' end, backbone not given here; antisense: sugars from the 5' end r19 m2, backbone not given here; further chemistry not fully specified)
CEBPA-mRNA relative expression [6]: 1.31 | Normalized cell viability ([7]; 96 hours after treatment): 0.32 | Normalized cell viability ([7]; 120 hours after treatment): 0.25

NC: Negative control oligonucleotide siFLUC, SEQ ID NO: 6 and 7 (chain 1 rCmUmUrAmCrGmCmUrGrArGmUrAmCmUmUmCrGrAdT*dT; chain 2 rUrCrGrArArGmUrArCrUmCrArGrCrGmUrArArGdT*dT)
Normalized cell viability ([8]; 96 hours after treatment): 0.62 | Normalized cell viability ([8]; 120 hours after treatment): 0.70 | CEBPA-mRNA relative expression [6]: 0.89 | Normalized cell viability ([7]; 96 hours after treatment): 0.48 | Normalized cell viability ([7]; 120 hours after treatment): 0.59

Nivolumab: PD-1 inhibitor, Human IgG
responders with responses lasting 6 months or longer [9]: 91% | responders with responses lasting 12 months or longer [9]: 55% | overall response rate ([9]; HCC patients, 95% CI: 9.2, 20.8): 14.3% | complete responses ([9]; HCC patients): 3 | partial responses ([9]; HCC patients): 19
